From US8735414B2 (priority 2009, dated 2014) come the findings set out here.

Series [1] has as its system bicistronic HCV replicon (replicon RNA, GenBank Accession No. AJ242654). The series can be described thus: HCV Replicon Assay. The format is cell-based. To be noted: Hepatitis C virus, 72 h, read-out: Replicon IC50.

In turn, `CCc1cc2c(cc1F)c(C#N)c(-c1ccc(S(=O)(=O)NC(C)(C)C)cn1)n2-c1ccccc1` [compound 884, N-tert-butyl-6-(3-cyano-6-ethyl-5-fluoro-1-phenyl-1H-indol-2-yl)pyridine-3-sulfonamide] registered a melting point of 175 to 180 °C. The IC50 in series [1] was below 0.5 µM.

Compound `N#Cc1c(-c2ncc(S(=O)(=O)NC(CF)CF)cn2)n(CC2CC2)c2cc(C3CC3)ccc12` [compound 344, 2-[3-cyano-6-cyclopropyl-1-(cyclopropylmethyl)-1H-indol-2-yl]-N-(1,3-difluoropropan-2-yl)pyrimidine-5-sulfonamide] showed a melting point of 205 to 210 °C. The IC50 in series [1] is below 0.5 µM.

The compound `CCCS(=O)(=O)Nc1ccc(-c2c(C#N)c3ccc(Oc4nccnc4C#N)cc3n2C2CCC2)nc1` [compound 273, N-(6-{3-cyano-6-[(3-cyanopyrazin-2-yl)oxy]-1-cyclobutyl-1H-indol-2-yl}pyridin-3-yl)propane-1-sulfonamide] returned a melting point of 252 to 254 °C. Also, in series [1], the IC50 is below 0.5 µM.

Regarding `C[C@@H](NS(=O)(=O)c1ccc(-c2c(C#N)c3cc(F)c(OC(F)F)cc3n2CC2CC2)nc1)C(F)(F)F` [compound 789, 6-[3-cyano-1-(cyclopropylmethyl)-6-(difluoromethoxy)-5-fluoro-1H-indol-2-yl]-N-[(2R)-1,1,1-trifluoropropan-2-yl]pyridine-3-sulfonamide], the melting point is 148 to 153 °C. The IC50 in series [1] is below 0.5 µM.

For the compound `C[C@@H](NS(=O)(=O)c1ccc(-c2c(C#N)c3ccc(Cl)cc3n2C2CCC2)nc1)C(F)(F)F` [compound 222, 6-(6-chloro-3-cyano-1-cyclobutyl-1H-indol-2-yl)-N-[(2R)-1,1,1-trifluoropropan-2-yl]pyridine-3-sulfonamide], the melting point was in the range of 202 to 206 °C. Also, in series [1], the IC50 was below 0.5 µM.

Regarding `CC(C)NS(=O)(=O)c1cnc(-c2c(C#N)c3ccc(OC(F)(F)F)cc3n2C2CCCC2)nc1` [compound 117, 2-[3-cyano-1-cyclopentyl-6-(trifluoromethoxy)-1H-indol-2-yl]-N-(propan-2-yl)pyrimidine-5-sulfonamide], the melting point was in the range of 216 to 218 °C. Also, the IC50 in series [1] fell in the range of 0.5 to 2 µM.

`C[C@H](NS(=O)(=O)c1ccc(-c2c(C(N)=O)c3cc(F)ccc3n2C2CCC2)nc1)C(F)(F)F` [compound 997, 1-cyclobutyl-5-fluoro-2-(5-{[(2S)-1,1,1-trifluoropropan-2-yl]sulfamoyl}pyridin-2-yl)-1H-indole-3-carboxamide] returned a melting point of 224 to 227 °C. The IC50 in series [1] is below 0.5 µM.

As for `CC(C)n1c(-c2ccc(S(=O)(=O)NC(CF)CF)cn2)c(C#N)c2ccc(OC(F)(F)F)cc21` [compound 69, 6-[3-cyano-1-(propan-2-yl)-6-(trifluoromethoxy)-1H-indol-2-yl]-N-(1,3-difluoropropan-2-yl)pyridine-3-sulfonamide], the melting point lay in the range of 116 to 117 °C. Besides, the IC50 in series [1] was below 0.5 µM.

Consider `CCc1cc(F)c2c(C(N)=O)c(-c3ccc(NS(=O)(=O)C(C)(C)C)nc3)n(-c3ccccc3)c2c1` [compound 1111, 2-{6-[(tert-butylsulfonyl)amino]pyridin-3-yl}-6-ethyl-4-fluoro-1-phenyl-1H-indole-3-carboxamide], for which the melting point lay within 288 to 294 °C. In addition, the IC50 in series [1] was below 0.5 µM.

In the case of `C[C@@H](NS(=O)(=O)c1cnc(-c2c(C#N)c3ccc(C4CC4)cc3n2C2CCC2)nc1)C(F)(F)F` [compound 180, 2-(3-cyano-1-cyclobutyl-6-cyclopropyl-1H-indol-2-yl)-N-[(2R)-1,1,1-trifluoropropan-2-yl]pyrimidine-5-sulfonamide], the melting point is 211 to 212 °C. Also, the IC50 in series [1] was 0.5 to 2 µM.

`C[C@H](NS(=O)(=O)c1ccc(-c2c(C#N)c3cc(F)ccc3n2C2CCCCC2)nc1)C(F)(F)F` [compound 410, 6-(3-cyano-1-cyclohexyl-5-fluoro-1H-indol-2-yl)-N-[(2S)-1,1,1-trifluoropropan-2-yl]pyridine-3-sulfonamide] yielded a melting point of 209 to 211 °C. Besides, in series [1], the 50% inhibitory concentration (IC50) was below 0.5 µM.

In turn, `CSc1cc2c(cc1F)c(C#N)c(-c1ccc(S(=O)(=O)N[C@@H](C)C(F)(F)F)cn1)n2C1CCC1` [compound 772, 6-[3-cyano-1-cyclobutyl-5-fluoro-6-(methylsulfanyl)-1H-indol-2-yl]-N-[(2S)-1,1,1-trifluoropropan-2-yl]pyridine-3-sulfonamide] registered a melting point of 201 to 203 °C. The IC50 in series [1] was below 0.5 µM.

In turn, `COc1ccc2c(c1)c(C#N)c(-c1ncc(S(=O)(=O)N[C@@H](C)C3CC3)cn1)n2C1CCC1` [compound 570, 2-(3-cyano-1-cyclobutyl-5-methoxy-1H-indol-2-yl)-N-[(1S)-1-cyclopropylethyl]pyrimidine-5-sulfonamide] gave a melting point of 182 to 183 °C. In series [1], the IC50 lay within 0.5 to 2 µM.

Regarding `CCS(=O)(=O)Nc1ccc(-c2c(C#N)c3ccc(OC(C)C)cc3n2CC2CC2)nc1` [compound 279, N-{6-[3-cyano-1-(cyclopropylmethyl)-6-(propan-2-yloxy)-1H-indol-2-yl]pyridin-3-yl}ethanesulfonamide], the melting point is 149 to 154 °C. For the same compound, the IC50 in series [1] lay within 0.5 to 2 µM.

`C[C@@H](NS(=O)(=O)c1cnc(-c2c(C#N)c3ccc(OC(F)F)cc3n2C2CCC2)nc1)C(F)(F)F` [compound 184, 2-[3-cyano-1-cyclobutyl-6-(difluoromethoxy)-1H-indol-2-yl]-N-[(2R)-1,1,1-trifluoropropan-2-yl]pyrimidine-5-sulfonamide] yielded a melting point of 112 to 114 °C. The concentration for half-maximal inhibition (IC50) in series [1] is below 0.5 µM.

`N#Cc1c(-c2ccc(S(=O)(=O)NC(CF)CF)cn2)n(C2CCCC2)c2ccc(OC(F)F)cc12` [compound 33, 6-[3-cyano-1-cyclopentyl-5-(difluoromethoxy)-1H-indol-2-yl]-N-(1,3-difluoropropan-2-yl)pyridine-3-sulfonamide] displayed a melting point of 172 to 175 °C. Moreover, in series [1], the half-maximal inhibitory concentration (IC50) was below 0.5 µM.

For the compound `Cc1cc2c(cc1F)c(C#N)c(-c1ccc(S(=O)(=O)NC(CF)CF)cn1)n2C1CCC1` [compound 108, 6-(3-cyano-1-cyclobutyl-5-fluoro-6-methyl-1H-indol-2-yl)-N-(1,3-difluoropropan-2-yl)pyridine-3-sulfonamide], the melting point lay in the range of 186 to 188 °C. Further, in series [1], the half-maximal inhibitory concentration (IC50) is below 0.5 µM.

As for `Cc1cc2c(cc1F)c(C(N)=O)c(-c1ccc(S(=O)(=O)N[C@@H](C)C(F)(F)F)cn1)n2C1CCCC1` [compound 700, 1-cyclopentyl-5-fluoro-6-methyl-2-(5-{[(2S)-1,1,1-trifluoropropan-2-yl]sulfamoyl}pyridin-2-yl)-1H-indole-3-carboxamide], the melting point lay in the range of 244 to 246 °C. Further, the IC50 in series [1] is below 0.5 µM.

`CC(C)NS(=O)(=O)c1cnc(-c2c(C#N)c3ccc(C4CC4)cc3n2C2CCCC2)nc1` [compound 125, 2-(3-cyano-1-cyclopentyl-6-cyclopropyl-1H-indol-2-yl)-N-(propan-2-yl)pyrimidine-5-sulfonamide] yielded a melting point of 211 to 212 °C. Besides, the IC50 in series [1] was below 0.5 µM.
